According to PMC2228615 (The Journal of General Physiology, 1980):
pKd: −log10 of the molar value. Like-named read-outs stand apart in the source and are kept apart here.

Assays:
human erythrocytes = settings: similar conditions, estimated; cited from earlier work
Na+,K+-dependent ATPase = type: binding, turkey; settings: 150 mM Na+; for t1/2, observed half-time for disappearance of empty binding sites: 0.11-[…] K+, 37 C (Table I)
ox-brain Na+,K+-ATPase = settings: cited from earlier work

| Structure (SMILES) | k-1, dissociation rate constant (human erythrocytes) | activation energy for association (Arrhenius plot of k1) (Na+,K+-dependent ATPase; 5-37 C) [kcal/mol] | activation energy for dissociation (Arrhenius plot of k-1) (Na+,K+-dependent ATPase; 5-37 C) [kcal/mol] | time to attain equilibrium between free and bound radioligand (Na+,K+-dependent ATPase; 20 C or higher, 0.5 mM K+, 0.85 uM [3H]ouabain (Fig. 1)) [min] | k-1, dissociation rate constant (Na+,K+-dependent ATPase; 37 C, 0.5 mM K+, after 1 mM nonradioactive ouabain (Fig. 2)) [min⁻¹] | t1/2, observed half-time for disappearance of empty binding sites (Na+,K+-dependent ATPase; [3H]ouabain 1.7x10-7 M) [min] | t1/2, observed half-time for disappearance of empty binding sites (Na+,K+-dependent ATPase; [3H]ouabain 3.2x10-7 M) [min] | t1/2, observed half-time for disappearance of empty binding sites (Na+,K+-dependent ATPase; [3H]ouabain 8.1x10-7 M) [min] | t1/2, observed half-time for disappearance of empty binding sites (Na+,K+-dependent ATPase; [3H]ouabain 8.1x10-8 M) [min] | activation energy for association (k1) (ox-brain Na+,K+-ATPase; Na+,K+-ATPase from ox-brain cortex microsomes) [kcal/mol] | pKd (ox-brain Na+,K+-ATPase; read-out: D, dissociation constant for the potassium ion-ATPase complex, partially purified ox-brain ATPase, 150 mM Na+) |
| --- | --- | --- | --- | --- | --- | --- | --- | --- | --- | --- | --- |
| C[C@@H]1O[C@@H](O[C@H]2C[C@@H](O)[C@]3(CO)[C@H]4[C@H](O)C[C@]5(C)[C@@H](C6=CC(=O)OC6)CC[C@]5(O)[C@@H]4CC[C@]3(O)C2)[C@H](O)[C@H](O)[C@H]1O [ouabain] | ~ 0.001 min-1 | 29.5 | 24.2 | ≤ 15 | 0.16 | 2.2 | 1.2 | 0.49 | 5.1 | 21 to 23 | – |
| [K+] [potassium ion] | – | – | – | – | – | – | – | – | – | – | 2.66 |
